The source of these data is ChEMBL document CHEMBL3046652, “Photodimerization of heteroaryl chalcones: comparative antimicrobial activities of chalcones and their photoproducts” (2012).

≈ marks a conversion by molar mass, not a printed value.

Type in all cases: functional
Assay [1] concerns Escherichia coli. Description: Antimicrobial activity against Escherichia coli at 30 ug/disk by disk diffusion method. The note with it: read-out: DIZ.
The subject of assay [2] is Salmonella typhi. Description: Antimicrobial activity against Salmonella enterica subsp. enterica serovar Typhi by disk diffusion method.
The test system of assay [3] is Priestia megaterium. Description: Antimicrobial activity against Bacillus megaterium by disk diffusion method.
In assay [4] the test system is Pseudomonas aeruginosa. In words: Antimicrobial activity against Pseudomonas aeruginosa by disk diffusion method.
The subject of assay [5] is Salmonella typhi. In words: Antimicrobial activity against Salmonella enterica subsp. enterica serovar Typhi at 50 ug/disk by disk diffusion method. The note with it: read-out: DIZ.
The subject of assay [6] is Serratia marcescens. Description: Antimicrobial activity against Serratia marcescens by disk diffusion method.
Assay [7] deals with Citrobacter freundii. In words: Antimicrobial activity against Citrobacter freundii at 20 ug/disk by disk diffusion method. The settings on record: read-out: DIZ.
In assay [8] the test system is Proteus vulgaris. In words: Antimicrobial activity against Proteus vulgaris at 10 ug/disk by disk diffusion method. The note with it: read-out: DIZ.
The test system of assay [9] is Priestia megaterium. Description: Antimicrobial activity against Bacillus megaterium at 10 ug/disk by disk diffusion method. The note with it: read-out: DIZ.
For assay [10], the system named is Escherichia coli. Description: Antimicrobial activity against Escherichia coli by disk diffusion method.
Assay [11] concerns Candida albicans. In words: Antimicrobial activity against Candida albicans at 10 ug/disk by disk diffusion method. The settings on record: read-out: DIZ.
Assay [12] deals with Citrobacter freundii. In words: Antimicrobial activity against Citrobacter freundii by disk diffusion method.
The subject of assay [13] is Fusarium verticillioides. Description: Antimicrobial activity against Fusarium verticillioides at 30 ug/disk by disk diffusion method. The note with it: read-out: DIZ.
The test system of assay [14] is Klebsiella pneumoniae. Description: Antimicrobial activity against Klebsiella pneumoniae at 20 ug/disk by disk diffusion method. The settings on record: read-out: DIZ.
Assay [15] concerns Pseudomonas aeruginosa. In words: Antimicrobial activity against Pseudomonas aeruginosa at 40 ug/disk by disk diffusion method. The note with it: read-out: DIZ.
Assay [16] has as its system Aspergillus niger. In words: Antimicrobial activity against Aspergillus niger at 20 ug/disk by disk diffusion method. The note with it: read-out: DIZ.
Assay [17] relates to Klebsiella pneumoniae. Description: Antimicrobial activity against Klebsiella pneumoniae by disk diffusion method.
Assay [18] deals with Micrococcus luteus. Description: Antimicrobial activity against Micrococcus luteus by disk diffusion method.
In assay [19] the test system is Serratia marcescens. Description: Antimicrobial activity against Serratia marcescens at 10 ug/disk by disk diffusion method. The note with it: read-out: DIZ.
For assay [20], the system named is Aspergillus oryzae. In words: Antimicrobial activity against Aspergillus oryzae at 30 ug/disk by disk diffusion method. The settings on record: read-out: DIZ.
Assay [21] has as its system Proteus vulgaris. In words: Antimicrobial activity against Proteus vulgaris by disk diffusion method.
Assay [22] concerns Micrococcus luteus. In words: Antimicrobial activity against Micrococcus luteus at 10 ug/disc by disk diffusion method. The note with it: read-out: DIZ.
Assay [23] has as its system Proteus vulgaris. In words: Antimicrobial activity against Proteus vulgaris at 20 ug/disk by disk diffusion method. The note with it: read-out: DIZ.
Assay [24] deals with Candida albicans. Description: Antimicrobial activity against Candida albicans at 40 ug/disk by disk diffusion method. The settings on record: read-out: DIZ.
Assay [25] relates to Serratia marcescens. Description: Antimicrobial activity against Serratia marcescens at 20 ug/disk by disk diffusion method. The settings on record: read-out: DIZ.
The test system of assay [26] is Pseudomonas aeruginosa. In words: Antimicrobial activity against Pseudomonas aeruginosa at 10 ug/disk by disk diffusion method. The settings on record: read-out: DIZ.
The subject of assay [27] is Aspergillus oryzae. Description: Antimicrobial activity against Aspergillus oryzae at 10 ug/disk by disk diffusion method. The note with it: read-out: DIZ.
Assay [28] deals with Fusarium verticillioides. Description: Antimicrobial activity against Fusarium verticillioides at 10 ug/disk by disk diffusion method. The settings on record: read-out: DIZ.
The test system of assay [29] is Escherichia coli. In words: Antimicrobial activity against Escherichia coli at 10 ug/disk by disk diffusion method. The settings on record: read-out: DIZ.
Assay [30] deals with Klebsiella pneumoniae. Description: Antimicrobial activity against Klebsiella pneumoniae at 10 to 60 ug/disk by disk diffusion method.
The test system of assay [31] is Salmonella typhi. Description: Antimicrobial activity against Salmonella enterica subsp. enterica serovar Typhi at 10 ug/disk by disk diffusion method. The note with it: read-out: DIZ.

Take `O=C(/C=C/c1ccccc1)c1ccc[nH]1`: the zone of inhibition at 30 µg/disc in assay [1] came out at 7 mm; in assay [13] it was 8 mm; in assay [20], 9 mm. Also, the MIC in assay [2], in assay [3], in assay [4], in assay [6], in assay [10] and in assay [12] was 10 µg/mL (≈ 50.7 µM) throughout. Besides, the MIC in [17], in [18] and in assay [21] was 10 µg/mL (≈ 50.7 µM) throughout. In addition, the zone of inhibition at 50 µg/disc in [5] amounted to 7 mm. Also, the zone of inhibition at 20 µg/disc in assay [7] is 6 mm; in [14], 8 mm; in [16] it was 11 mm. Moreover, the zone of inhibition at 10 µg/disc in assay [8] is 5 mm; in assay [9], 13 mm; in assay [11] it was 7 mm; in assay [19] it was 9 mm; in assay [22] it was 7 mm. In assay [15], the zone of inhibition at 40 µg/disc is 7 mm.

With `O=C(/C=C/c1ccccc1)c1cccs1`, the MIC in [2], in assay [3], in [4], in [6], in assay [10] and in assay [12] was 10 µg/mL (≈ 46.7 µM) in each case. Besides, the MIC in [17], in assay [18] and in assay [21] was 10 µg/mL (≈ 46.7 µM) in each case. Besides, the zone of inhibition at 20 µg/disc in [23] was 11 mm; in [7], 7 mm; in [25], 9 mm; in assay [16], 7 mm. For the same compound, in assay [24], the zone of inhibition at 40 µg/disc amounted to 9 mm. The zone of inhibition at 10 µg/disc is 10 mm in assay [9]; 5 mm in assay [26]; 9 mm in [27]; 9 mm in assay [28]; 5 mm in assay [29]; 12 mm in [31]. In addition, the zone of inhibition at 10 µg/disc in assay [22] is 9 mm. The “diameter of the inhibition zone (DIZ)” value in assay [30] is 10 mm.
